From patent publication US6359196B1, “Germination-specific plant promoters” (priority 1999, dated 2002)

Experiments:
[1] = test system: barley cystatin-1 gene promoter; experiment: Transient expression in barley aleurone protoplasts, cys1 promoter deletion constructs fused to β-glucuronidase, normalised to luciferase; format: cell-based; settings: 1 μM phytohormone, 40-hour incubation at 20° C.; β-glucuronidase activity divided by luciferase activity
Description: Barley aleurone protoplasts were prepared as described in Example 4, and separate protoplast aliquots were co-transfected with plasmid pAHC18 carrying the luciferase gene under control of the gene promoter derived from a constitutively expressed maize ubitiquitin gene (Bruce et al., 1989, Proc. Natl. Acad. Sci. USA 86:9692-9696), and one of the eight expression plasmids containing 5' deletions of the cystatin-1 gene promoter, as described above. The molar concentration of pAHC 18 was half of that of the reporter plasmid directing expression of β-glucuronidase. Incubation of the protoplasts with 1 μM gibberellic acid or 1 μM abscisic acid were performed in order to analyse possible, regulative effects of the phytohormones on […] gene expression, and identify the location of possible hormone responsive cis-acting gene elements. After a 40-hour incubation at 20° C., the protoplasts were harvested and the level of β-glucuronidase and luciferase activities determined as described by Leah et al. (1994, supra). The relative β-glucuronidase activity in individual samples was calculated by dividing the measured activity by the measured luciferace activity, thereby allowing differences in transformation efficiency to be corrected for.

[2] = test system: barley α-glucosidase gene promoter; experiment: Transient expression in barley aleurone protoplasts, constructs with the α-glucosidase gene promoter; format: cell-based; settings: protoplasts incubated in the presence of gibberellic acid, 25° C., 40 hours
From the text: It is possible to evaluate the expression levels directed by the barley α-glucosidase gene promoter by several methods. One such method is by transient expression assays performed with protoplasts prepared from aleurone layers of the barley cultivar Himalaya. This approach is not only used to evaluate the ability of different promoters to function in barley endosperm-derived tissues, including the aleurone tissue, but also to determine whether an expressed protein is secreted from the plant cell or whether the protein remains in the cell cytoplasm.
Protoplasts are transfected with a gene cassette of interest and incubated to allow the introduced gene to be expressed, and the corresponding protein allowed to accumulate in the cell or in the surrounding liquid medium. Following incubation at 25° C. for 40 hours in the presence or absence of gibberellic acid, the cells and the growth medium are assayed for the presence of the protein encoded by the transgene in order to determine the efficiency of the promoter which drives transgene expression.
A protocol for the preparation and transfection of barley aleurone protoplasts has been published by Skriver et al., (1991, supra). […]

activity derived from heterologously expressed enzymes [2]	SMILES	relative expression of β-glucuronidase [1]
enhanced levels of activity	C=C1C[C@]23C[C@@]1(O)CC[C@H]2[C@@]12C=C[C@H](O)[C@@](C)(C(=O)O1)[C@H]2[C@@H]3C(=O)O [gibberellic acid]	slight depression
	CC1=CC(=O)CC(C)(C)[C@@]1(O)/C=C/C(C)=C\C(=O)O [abscisic acid]	increased
